Test results from patent publication US12559502B2, “Thieno pyrimidines as ferroportin inhibitors” (Global Blood Therapeutics, Inc., priority 2020, dated 2026).

What follows are compounds tested against T1, human ferroportin (Homo sapiens, UniProt Q9NP59) (assay: In-vitro ferroportin internalization assay (luciferase reporter)). Settings: average pEC50; stably-transfected CHO cell line expressing human ferroportin tagged to a luciferase reporter; 6 h incubation with test compound; luciferase activity (Nano-Glo).
T1 construct: expressed in transfected cells; host or cells: CHO cells, stably transfected, doxycycline-inducible
T1 sequence (Q9NP59 1-571): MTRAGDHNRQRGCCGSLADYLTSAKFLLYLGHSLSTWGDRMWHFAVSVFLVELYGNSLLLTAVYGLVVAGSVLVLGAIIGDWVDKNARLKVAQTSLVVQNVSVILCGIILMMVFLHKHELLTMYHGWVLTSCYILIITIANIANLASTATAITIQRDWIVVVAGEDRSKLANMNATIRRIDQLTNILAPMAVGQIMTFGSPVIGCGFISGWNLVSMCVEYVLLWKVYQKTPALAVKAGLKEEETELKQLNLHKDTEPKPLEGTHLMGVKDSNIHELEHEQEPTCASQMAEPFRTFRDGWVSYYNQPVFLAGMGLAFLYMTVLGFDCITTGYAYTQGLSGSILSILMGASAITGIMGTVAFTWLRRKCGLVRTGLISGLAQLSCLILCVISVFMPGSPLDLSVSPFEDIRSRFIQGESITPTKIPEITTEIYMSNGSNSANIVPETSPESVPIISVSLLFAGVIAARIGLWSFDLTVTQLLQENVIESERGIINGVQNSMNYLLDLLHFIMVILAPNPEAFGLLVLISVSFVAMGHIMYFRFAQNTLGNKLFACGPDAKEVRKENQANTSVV
Type: cell-based
Procedure: The protocol for this assay is generally as described in WO2018/128828, incorporated herein by reference in its entirety. Functional internalization of ferroportin protein was measured using a stably-transfected CHO cell line expressing the human ferroportin tagged to a luciferase reporter. Cells were plated for 24 h in the presence of ferric ammonium citrate (FAC). Ferroportin protein expression was induced with doxycycline for 24 h. The next day, the compounds were added. Test compounds were dissolved in DMSO. Cells were incubated with the test compounds for 6 h, and subsequently luciferase activity was measured using the Nano-Glo Luciferase Assay System and Glomax (Promega, Madison, WI).
The average pEC50 was determined for the test compounds.

Row | pEC50 | SMILES
1 | 7.5 | Cc1sc2nc(-c3cc(OCCN(C)C)ccn3)nc(N(C)CC(=O)NC3(C(F)(F)F)CC3)c2c1C [Compound 22, 2-[(2-{4-[2-(dimethylamino)ethoxy]pyridin-2-yl}-5,6-dimethylthieno[2,3-d]pyrimidin-4-yl)(methyl)amino]-N-[1-(trifluoromethyl)cyclopropyl]acetamide]
2 | 8.2 | Cc1sc2nc(-c3cc(OCCN4C[C@@H]5C[C@H]4CO5)ccn3)nc(N(C)CC(=O)NC(C)(C)C)c2c1C [Compound 23, N-tert-butyl-2-{[5,6-dimethyl-2-(4-{2-[(1S,4S)-2-oxa-5-azabicyclo[2.2.1]heptan-5-yl]ethoxy}pyridin-2-yl)thieno[2,3-d]pyrimidin-4-yl](methyl)amino}acetamide]
3 | 7.8 | Cc1sc2nc(-c3cc(OCCN(C)C)ccn3)nc(N(C)CC(=O)NC(C)(C)C)c2c1C [Compound 18, N-tert-butyl-2-[(2-{4-[2-(dimethylamino)ethoxy]pyridin-2-yl}-5,6-dimethylthieno[2,3-d]pyrimidin-4-yl)(methyl)amino]acetamide]
4 | 7.8 | Cc1sc2nc(-c3cc(OCCN4CCN(C)CC4)ccn3)nc(N(C)CC(=O)NC(C)(C)C)c2c1C [Compound 21, N-tert-butyl-2-[(5,6-dimethyl-2-{4-[2-(4-methylpiperazin-1-yl)ethoxy]pyridin-2-yl}thieno[2,3-d]pyrimidin-4-yl)(methyl)amino]acetamide]
5 | 8 | Cc1sc2nc(-c3cc(OCCN4CCOCC4)ccn3)nc(N(C)CC(=O)NC(C)(C)C)c2c1C [Compound 20, N-tert-butyl-2-[(5,6-dimethyl-2-{4-[2-(morpholin-4-yl)ethoxy]pyridin-2-yl}thieno[2,3-d]pyrimidin-4-yl)(methyl)amino]acetamide]
6 | 8 | Cc1sc2nc(-c3cc(OCCn4ccnc4)ccn3)nc(N(C)CC(=O)NC(C)(C)C)c2c1C [Compound 24, N-tert-butyl-2-[(2-{4-[2-(1H-imidazol-1-yl)ethoxy]pyridin-2-yl}-5,6-dimethylthieno[2,3-d]pyrimidin-4-yl)(methyl)amino]acetamide]
7 | 7.6 | Cc1sc2nc(-c3cc(O[C@@H]4CCN(C)C4)ccn3)nc(N(C)CC(=O)NC(C)(C)C)c2c1C [Compound 19, N-tert-butyl-2-{[5,6-dimethyl-2-(4-{[(3R)-1-methylpyrrolidin-3-yl]oxy}pyridin-2-yl)thieno[2,3-d]pyrimidin-4-yl](methyl)amino}acetamide]

The next lines start with the compound.

Row | SMILES | pEC50
8 | COc1ccc(NC(=O)CN(C)c2nc(-c3cc(OCCO)ccn3)nc3sc(C)c(C)c23)cn1 [Compound 11, 2-([2-[4-(2-hydroxyethoxy)pyridin-2-yl]-5,6-dimethylthieno[2,3-d]pyrimidin-4-yl](methyl)amino)-N-(6-methoxypyridin-3-yl)acetamide] | 7.5
9 | Cc1sc2nc(-c3cc(OCCO)ccn3)nc(N(C)CC(=O)Nc3cccc(F)c3)c2c1C [Compound 9, N-(3-fluorophenyl)-2-({2-[4-(2-hydroxyethoxy)pyridin-2-yl]-5,6-dimethylthieno[2,3-d]pyrimidin-4-yl}(methyl)amino)acetamide] | 7.7
10 | Cc1ccc(NC(=O)CN(C)c2nc(-c3cc(OCCO)ccn3)nc3sc(C)c(C)c23)cn1 [Compound 10, 2-({2-[4-(2-hydroxyethoxy)pyridin-2-yl]-5,6-dimethylthieno[2,3-d]pyrimidin-4-yl}(methyl)amino)-N-(6-methylpyridin-3-yl)acetamide] | 7.6
11 | COc1ccc(NC(=O)CN(C)c2nc(-c3cn(C)cn3)nc3sc(C)c(C)c23)cn1 [Compound 13, 2-{[5,6-dimethyl-2-(1-methyl-1H-imidazol-4-yl)thieno[2,3-d]pyrimidin-4-yl](methyl)amino}-N-(6-methoxypyridin-3-yl)acetamide] | 7.1
12 | COc1cccc(NC(=O)CN(C)c2nc(-c3cc(OCCO)ccn3)nc3sc(C)c(C)c23)c1 [Compound 8, 2-({2-[4-(2-hydroxyethoxy)pyridin-2-yl]-5,6-dimethylthieno[2,3-d]pyrimidin-4-yl}(methyl)amino)-N-(3-methoxyphenyl)acetamide] | 7.8
13 | Cc1sc2nc(-c3cn(C)cn3)nc(N(C)CC(=O)NC(C)(C)C)c2c1C [Compound 14, N-tert-butyl-2-{[5,6-dimethyl-2-(1-methyl-1H-imidazol-4-yl)thieno[2,3-d]pyrimidin-4-yl](methyl)amino}acetamide] | 7
14 | Cc1sc2nc(-c3cc(OCCO)ccn3)nc(N(C)CC(=O)NC(C)(C)C)c2c1C [Compound 15, N-tert-butyl-2-({2-[4-(2-hydroxyethoxy)pyridin-2-yl]-5,6-dimethylthieno[2,3-d]pyrimidin-4-yl}(methyl)amino)acetamide] | 7.8
15 | COc1ccnc(-c2nc(N(C)CC(=O)Nc3ccc(OC)nc3)c3ccsc3n2)c1 [Compound 7, 2-{[2-(4-methoxypyridin-2-yl)thieno[2,3-d]pyrimidin-4-yl](methyl)amino}-N-(6-methoxypyridin-3-yl)acetamide] | 6.6
16 | COc1ccc(NC(=O)CN(C)c2nc(-c3cc(OCCO)ccn3)nc3sc(C)cc23)cn1 [Compound 16, 2-({2-[4-(2-hydroxyethoxy)pyridin-2-yl]-6-methylthieno[2,3-d]pyrimidin-4-yl}(methyl)amino)-N-(6-methoxypyridin-3-yl)acetamide] | 7.6
17 | Cc1ccc(NC(=O)CN(C)c2nc(-c3cn(C)cn3)nc3sc(C)c(C)c23)cn1 [Compound 12, 2-{[5,6-dimethyl-2-(1-methyl-1H-imidazol-4-yl)thieno[2,3-d]pyrimidin-4-yl](methyl)amino}-N-(6-methylpyridin-3-yl)acetamide] | 7.1
18 | COc1ccc(NC(=O)CN(C)c2nc(-c3cc(OCCO)ccn3)nc3scc(C)c23)cn1 [Compound 17, 2-({2-[4-(2-hydroxyethoxy)pyridin-2-yl]-5-methylthieno[2,3-d]pyrimidin-4-yl}(methyl)amino)-N-(6-methoxypyridin-3-yl)acetamide] | 7.7
